Results reported in ChEMBL document CHEMBL3608229, “Saccharothrixones A-D, Tetracenomycin-Type Polyketides from the Marine-Derived Actinomycete Saccharothrix sp. 10-10” (J Nat Prod, 2015).

Experiments:
[1] = tested on: Staphylococcus aureus; experiment: Antibacterial activity against methicillin-susceptible Staphylococcus aureus 15 after 18 hrs by agar dilution method; format: functional; conditions: Staphylococcus aureus, 15, 18 h
[2] = tested on: Enterococcus faecalis; experiment: Antibacterial activity against vancomycin-resistant Enterococcus faecalis ATCC 51299 after 18 hrs by agar dilution method; format: functional; conditions: ATCC 51299, 18 h
[3] = tested on: Escherichia coli; experiment: Antibacterial activity against beta-lactamase producing Escherichia coli ATCC 25922 after 18 hrs by agar dilution method; format: functional; conditions: ATCC 25922, 18 h
[4] = tested on: Klebsiella pneumoniae; experiment: Antibacterial activity against extended spectrum beta-lactamase producing Klebsiella pneumoniae ATCC 700603 after 18 hrs by agar dilution method; format: functional; conditions: ATCC 700603, 18 h
[5] = tested on: Staphylococcus aureus; experiment: Antibacterial activity against methicillin-resistant Staphylococcus aureus ATCC 33591 after 18 hrs by agar dilution method; format: functional; conditions: ATCC 33591, 18 h
[6] = tested on: Staphylococcus aureus; experiment: Antibacterial activity against methicillin-resistant Staphylococcus aureus 12-28 after 18 hrs by agar dilution method; format: functional; conditions: 12-28, 18 h
[7] = tested on: Pseudomonas aeruginosa; experiment: Antibacterial activity against beta-lactamase producing Pseudomonas aeruginosa ATCC 27853 after 18 hrs by agar dilution method; format: functional; conditions: ATCC 27853, 18 h
[8] = tested on: HepG2; experiment: Cytotoxicity against human HepG2 cells assessed as growth inhibition after 48 hrs by sulforhodamine B assay; format: functional, cell-based; conditions: HepG2, 48 h
[9] = tested on: Proteus vulgaris; experiment: Antibacterial activity against beta-lactamase producing Proteus vulgaris ATCC 29905 after 18 hrs by agar dilution method; format: functional; conditions: ATCC 29905, 18 h
[10] = tested on: Staphylococcus epidermidis; experiment: Antibacterial activity against methicillin-resistant Staphylococcus epidermidis 12-6 after 18 hrs by agar dilution method; format: functional; conditions: 12-6, 18 h
[11] = tested on: Staphylococcus aureus; experiment: Antibacterial activity against methicillin-resistant Staphylococcus aureus 12-33 after 18 hrs by agar dilution method; format: functional; conditions: 12-33, 18 h
[12] = tested on: K562; experiment: Cytotoxicity against human K562 cells assessed as growth inhibition after 48 hrs by sulforhodamine B assay; format: functional, cell-based; conditions: K562, 48 h
[13] = tested on: Acinetobacter calcoaceticus; experiment: Antibacterial activity against beta-lactamase producing Acinetobacter calcoaceticus ATCC 19606 after 18 hrs by agar dilution method; format: functional; conditions: ATCC 19606, 18 h
[14] = tested on: Staphylococcus epidermidis; experiment: Antibacterial activity against methicillin-susceptible Staphylococcus epidermidis ATCC 12228 after 18 hrs by agar dilution method; format: functional; conditions: ATCC 12228, 18 h
[15] = tested on: Enterococcus faecium; experiment: Antibacterial activity against vancomycin-resistant Enterococcus faecium ATCC 700221 after 18 hrs by agar dilution method; format: functional; conditions: ATCC 700221, 18 h
[16] = tested on: Enterococcus faecium; experiment: Antibacterial activity against vancomycin-resistant Enterococcus faecium 12-1 after 18 hrs by agar dilution method; format: functional; conditions: 12-1, 18 h
[17] = tested on: MCF7; experiment: Cytotoxicity against human MCF7 cells assessed as growth inhibition after 48 hrs by sulforhodamine B assay; format: functional, cell-based; conditions: MCF7, 48 h
[18] = tested on: Enterococcus faecium; experiment: Antibacterial activity against vancomycin-resistant Enterococcus faecium 12-3 after 18 hrs by agar dilution method; format: functional; conditions: 12-3, 18 h
[19] = tested on: Staphylococcus aureus; experiment: Antibacterial activity against methicillin-susceptible Staphylococcus aureus ATCC 29213 after 18 hrs by agar dilution method; format: functional; conditions: ATCC 29213, 18 h
[20] = tested on: Klebsiella pneumoniae; experiment: Antibacterial activity against NDM-1 producing Klebsiella pneumoniae ATCC BAA-2146 after 18 hrs by agar dilution method; format: functional; conditions: ATCC BAA-2146, 18 h
[21] = tested on: Enterococcus faecalis; experiment: Antibacterial activity against vancomycin-susceptible Enterococcus faecalis ATCC 29212 after 18 hrs by agar dilution method; format: functional; conditions: ATCC 29212, 18 h
[22] = tested on: Staphylococcus epidermidis; experiment: Antibacterial activity against methicillin-resistant Staphylococcus epidermidis 12-8 after 18 hrs by agar dilution method; format: functional; conditions: 12-8, 18 h
[23] = tested on: Enterococcus faecalis; experiment: Antibacterial activity against vancomycin-resistant Enterococcus faecalis 12-5 after 18 hrs by agar dilution method; format: functional; conditions: 12-5, 18 h
[24] = tested on: Enterococcus faecalis; experiment: Antibacterial activity against vancomycin-resistant Enterococcus faecalis 09-9 after 18 hrs by agar dilution method; format: functional; conditions: 09-9, 18 h
[25] = tested on: Morganella morganii; experiment: Antibacterial activity against beta-lactamase producing Morganella morganii ATCC 25830 after 18 hrs by agar dilution method; format: functional; conditions: ATCC 25830, 18 h

Row | Structure (SMILES) | MIC [1] [µg/mL] | MIC [2] [µg/mL] | MIC [3] [µg/mL] | MIC [5] [µg/mL] | MIC [6] [µg/mL] | MIC [7] [µg/mL] | IC50 [8] [µM] | MIC [9] [µg/mL] | MIC [10] [µg/mL] | MIC [11] [µg/mL] | IC50 [12] [µM] | MIC [13] [µg/mL] | MIC [14] [µg/mL] | MIC [15] [µg/mL] | MIC [16] [µg/mL] | IC50 [17] [µM] | MIC [18] [µg/mL] | MIC [19] [µg/mL] | MIC [20] [µg/mL] | MIC [21] [µg/mL] | also measured
1 | COC(=O)c1c(OC)cc2cc3c(c(O)c2c1C)C(=O)[C@@]1(O)C(OC)=CC(=O)[C@H](OC)[C@@]1(O)C3=O | > 64 | > 64 | > 64 | > 64 | > 64 | > 64 | 7.5 | > 64 | > 64 | > 64 | 20.8 | > 64 | > 64 | > 64 | > 64 | 16.2 | > 64 | > 64 | > 64 | > 64 | MIC [4]: > 64 µg/mL; MIC [22]: > 64 µg/mL; MIC [23]: > 64 µg/mL; MIC [24]: > 64 µg/mL; MIC [25]: > 64 µg/mL
2 | COC(=O)c1c(OC)cc2cc3c(c(O)c2c1C)C(=O)[C@]1(OC)C(=O)C=C(OC)[C@@H](O)[C@]1(O)C3=O | – | – | – | – | – | – | 1.6 | – | – | – | 5.2 | – | – | – | – | 1.5 | – | – | – | – | –
3 | COc1cccc2c1C(=O)c1c(O)c3c(c(O)c1C2=O)C[C@@](O)(C(=O)CO)C[C@@H]3O[C@H]1C[C@H](N)[C@H](O)[C@H](C)O1 [DOXORUBICIN] | – | – | – | – | – | – | 5.4 | – | – | – | 10.9 | – | – | – | – | – | – | – | – | – | –
4 | C[C@H]1COc2c(N3CCN(C)CC3)c(F)cc3c(=O)c(C(=O)O)cn1c23.C[C@H]1COc2c(N3CCN(C)CC3)c(F)cc3c(=O)c(C(=O)O)cn1c23.O [LEVOFLOXACIN] | 0.25 | 0.5 | ≤ 0.03 | 0.25 | 0.25 | 0.5 | – | ≤ 0.03 | 0.5 | 128 | – | 0.5 | 0.25 | 128 | 32 | – | 64 | 0.25 | > 128 | 0.5 | MIC [22]: 8 µg/mL; MIC [23]: 0.5 µg/mL; MIC [24]: > 128 µg/mL; MIC [25]: 0.06 µg/mL
